Assay results: patent US20220324876A1, “4-SUBSTITUTED PYRANO[3,4,b]PYRAZINE KAPPA AGONISTS FOR TREATING DRUG DEPENDENCY” (The Rockefeller University, priority 2019, published 2022)

Key:
[1] = molecular target: T1, human kappa opioid receptors (Homo sapiens, UniProt P41145); assay: [35S]GTPγS binding, membranes from U2OS cells; type: biochemical; conditions: for Emax: read-out: GTPγS (% efficacy)
T1 construct: expressed in transfected cells; host or cells: U2OS

[2] = molecular target: kappa opioid receptor (hOPRK1) β-arrestin (Homo sapiens, UniProt P41145); assay: β-arrestin PathHunter assay (U2OS hOPRK1); conditions: for Arrestin efficacy, %: Table E
male mice [3] = assay: Serum prolactin release in mice; type: in vivo; conditions: dose-response experiment
male mice [4] = assay: Rotarod incoordination (sedation) in mice; type: in vivo
Source text: In the case of rotarod incoordination, kappa agonist effects in this assay reflect kappa-opioid receptor arrestin mediated signaling. This assay is thought to be a sensitive measure of the sedative properties of kappa opioid receptor agonists. Generally, a compound which has reduced efficacy in the coupling of arrestin with the kappa opioid receptor is thought to have a lowered potential for the sedative side effects of kappa opioid receptor ligands Rotarod assays in vivo are employed to confirm this possibility.
Rotarod experiments are conducted with mice using a dedicated rodent rotarod apparatus, with up to five animals tested concurrently (IITC Life Science, Woodland Hills, Calif, USA). Rotarod rotation rate begins at 3 rotations per minute, and ramps to 30 rotations per minute over the course of 300 s, at which time the assay is terminated and animals removed to their home cage. Animals are acclimated to the rotarod on at least two occasions prior to the day of the test. On the day of the test, baseline times for each animal to fall off the rotarod are recorded. Mice are then injected intraperitoneally with vehicle or compound, and rotarod measurements conducted, beginning 0-2 minutes after injection, and then subsequently at select time points thereafter. Animals which fail to remain on the rotarod for at least 150 seconds during baseline testing are removed from the analysis.
(The closure of laboratories during the covid-19 pandemic delayed the carrying out of conditioned place aversion assays and modulation of cocaine self-administration, so that results were not available by the filing date of this application.)

Sequence of kappa opioid receptor (hOPRK1) β-arrestin (P41145 whole entry): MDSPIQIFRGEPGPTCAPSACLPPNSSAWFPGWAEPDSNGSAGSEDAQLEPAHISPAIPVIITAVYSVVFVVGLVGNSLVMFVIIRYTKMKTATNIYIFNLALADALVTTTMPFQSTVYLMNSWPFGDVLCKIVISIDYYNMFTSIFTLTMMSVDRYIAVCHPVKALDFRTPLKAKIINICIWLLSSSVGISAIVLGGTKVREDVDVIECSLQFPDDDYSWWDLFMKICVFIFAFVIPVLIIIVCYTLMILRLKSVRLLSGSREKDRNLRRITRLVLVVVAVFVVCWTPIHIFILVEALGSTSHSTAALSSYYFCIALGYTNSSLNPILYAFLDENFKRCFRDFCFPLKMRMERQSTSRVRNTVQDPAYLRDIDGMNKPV
T1 sequence (P41145 whole entry): as above

| SMILES | EC50 ([1]; GTPγS EC50 (nM), Table D) [nM] | EC50 ([1]; GTPγS potency (nM), Table E) [nM] | GTPγS efficacy, % ([1]; Table E) [%] | Emax [1] [%] | EC50 [2] [µM] | Arrestin efficacy, % [2] [%] | other results |
| --- | --- | --- | --- | --- | --- | --- | --- |
| CC(C)(O)CN1CCN(C(=O)Cc2ccc(Cl)c(Cl)c2)[C@H]2[C@H]1COC[C@@H]2N1CCCC1 (single isomer, unassigned) [Example 5A90A] | 22 | 34.7 | 91.0 | 101 | 43.2 | 78.1 | – |
| CC(C)(O)CN1CCN(C(=O)Cc2ccc(Cl)c(Cl)c2)[C@H]2[C@H](N3CCCC3)COC[C@@H]21 (single isomer, unassigned) [Example 5A90B] | 5.4 | 8.9 | 69.3 | 68 | 5.25 | 46.5 | stimulation of prolactin levels (male mice [3]; 30 mg/kg (p<0.05)): statistically significant stimulation; stimulation of prolactin levels (male mice [3]; 90 mg/kg (p<0.005)): statistically significant stimulation; sedative effect in rotarod (male mice [4]; 10 mg/kg intraperitoneally): not; sedative effect in rotarod (male mice [4]; 30 mg/kg intraperitoneally): not; sedative effect in rotarod (male mice [4]; 90 mg/kg intraperitoneally): substantial sedative effect |
| COCCS(=O)(=O)N1CCN(C(=O)Cc2ccc(Cl)c(Cl)c2)[C@H]2[C@H](N3CCCC3)COC[C@@H]21 (single isomer, unassigned) [Example 5A146B] | 115 | – | – | 127 | – | – | – |
| O=C(Cc1ccc(Cl)c(Cl)c1)N1CCN(Cc2ccon2)[C@@H]2COC[C@H](N3CCCC3)[C@H]21 [Example 5A86A] | 1 | – | – | 99 | – | – | – |
| O=C(Cc1ccc(Cl)c(Cl)c1)N1CCN(Cc2ccon2)[C@H]2COC[C@@H](N3CCCC3)[C@@H]21 [Example 5A86B] | 23 | – | – | 79 | – | – | – |
| CC(O)CN1CCN(C(=O)Cc2ccc(Cl)c(Cl)c2)[C@H]2[C@H]1COC[C@@H]2N1CCCC1 (some centres unmarked) [Example 5A89] | 34 | – | – | 93 | – | – | – |
| O=C(Cc1ccc(Cl)c(Cl)c1)N1CCN(CC2CCOC2)[C@@H]2COC[C@H](N3CCCC3)[C@H]21 (some centres unmarked) [Example 5A93] | 46 | – | – | 80 | – | – | – |
| CC(C)(O)C(=O)N1CCN(C(=O)Cc2ccc(Cl)c(Cl)c2)[C@H]2[C@H]1COC[C@@H]2N1CCCC1 [Example 5A96A] | 17 | 32.8 | 77.0 | 64 | 3.76 | 53.0 | sedative effect in rotarod (male mice [4]; up to 90 mg/kg intraperitoneally): no statistically significant sedative effect |
| CC(C)(O)C(=O)N1CCN(C(=O)Cc2ccc(Cl)c(Cl)c2)[C@H]2[C@H](N3CCCC3)COC[C@@H]21 [Example 5A96B] | 64 | 71.4 | 123.5 | 113 | 24.8 | 60.7 | – |
| CC(F)(F)CN1CCN(C(=O)Cc2ccc(Cl)c(Cl)c2)[C@H]2[C@H]1COC[C@@H]2N1CCCC1 [Example 5A127A] | 5.3 | – | – | 110 | – | – | – |
| CC(F)(F)CN1CCN(C(=O)Cc2ccc(Cl)c(Cl)c2)[C@H]2[C@H](N3CCCC3)COC[C@@H]21 [Example 5A127B] | 24 | – | – | 88 | – | – | – |
